Measurements as given in US12291499B2, “Deuterated tryptamine derivatives and methods of use” (priority 2020, dated 2025).

Columns and labels:
[1] = tested on: rat liver microsomes (RLM); assay: Metabolic stability in rat liver microsomes (RLM); settings: for RLM, %, class symbol (metabolized or not) / RLM, % (half-life as % vs. the related nondeuterated compound): RLM assay; for RLM, %, class symbol (metabolized or not): last time point 120 min; for RLM, % (half-life as % vs. the related nondeuterated compound): values in square brackets are within 10% (assay's accuracy), no deuteration effect
hrMAO-A = target: T1, hrMAO-A (Homo sapiens, UniProt P21397); assay: Metabolic stability in the presence of hrMAO-A; format: in vitro ADME; settings: for MAO, % (half-life as % vs. the related nondeuterated compound) / MAO, %, class symbol (metabolized or not): MAO-A assay; for MAO, % (half-life as % vs. the related nondeuterated compound): values in square brackets are within 10% (assay's accuracy), no deuteration effect; for MAO, %, class symbol (metabolized or not): last time point 120 min
T1 construct: purchased XenoTech Lot #8213001
T1 sequence (P21397 1-527): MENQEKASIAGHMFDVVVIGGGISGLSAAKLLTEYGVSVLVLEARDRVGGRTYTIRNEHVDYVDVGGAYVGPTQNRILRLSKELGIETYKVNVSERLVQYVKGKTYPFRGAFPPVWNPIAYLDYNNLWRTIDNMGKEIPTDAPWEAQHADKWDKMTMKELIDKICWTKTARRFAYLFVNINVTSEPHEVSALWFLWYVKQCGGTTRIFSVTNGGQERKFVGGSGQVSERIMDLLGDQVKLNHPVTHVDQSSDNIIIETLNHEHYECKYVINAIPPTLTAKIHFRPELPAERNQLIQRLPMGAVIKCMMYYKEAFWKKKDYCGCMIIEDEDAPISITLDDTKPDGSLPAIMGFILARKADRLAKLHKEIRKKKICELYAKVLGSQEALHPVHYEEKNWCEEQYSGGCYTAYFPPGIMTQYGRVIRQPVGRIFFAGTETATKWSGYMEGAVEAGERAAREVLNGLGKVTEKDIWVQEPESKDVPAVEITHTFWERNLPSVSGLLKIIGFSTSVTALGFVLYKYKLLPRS
Protocol: The reaction mixture was prepared as described below. The co-dosed TAs were added into the reaction mixture at a final concentration of 1 microM each. The positive control, kynuramine (25 microM), was run simultaneously with the TAs in a separate reaction. The reaction mixture (without TAs or kynuramine) was equilibrated in a shaking water bath at 37° C. for 5 minutes. The reaction was initiated by the addition of the TAs or kynuramine, and the mixture was incubated in a shaking water bath at 37° C. Aliquots (100 microL) of the TA reaction mixture were withdrawn at 0, 5, 10, 20, 30, 60, and 120 minutes. Aliquots (100 microL) of the positive control reaction mixture were withdrawn at 0 and 30 minutes. TA and kynuramine samples were immediately combined with 100 microL of ice-cold 100% MeCN containing 0.1% formic acid and IS to terminate the reaction. The samples were then mixed and centrifuged to precipitate proteins. All TA samples were assayed by LC-HRAMS. The PARR (analyte to IS) at each time point was compared to the PARR at time 0 to determine the percent remaining at each time point. Reaction composition: hrMAO 0.02 mg/mL; Potassium Phosphate, pH 7.4 100 mM; Magnesium Chloride 5 mM; Test Articles (each) 1 microM.

[2] = PK studies in rats (cassette dosing, oral gavage or catheter; brain and plasma levels); format: in vivo, Wistar female rats; settings: % change vs. non-deuterated material; for Deuterium Kinetic Isotope Effect (% change) AUC / Deuterium Kinetic Isotope Effect (% change) T1/2: 5 mg/kg; for Deuterium Kinetic Isotope Effect (% change) BPR, 15 min: sacrificed at 15 min; for Deuterium Kinetic Isotope Effect (% change) BPR, 15 min / Deuterium Kinetic Isotope Effect (% change) BPR, 30 min: parent drug in brain and plasma; for Deuterium Kinetic Isotope Effect (% change) BPR, 30 min: sacrificed at 30 min
Protocol: The key PK parameters (presented as a % change vs. non-deuterated materials) are presented in Table 3 to include half-life (T1/2), area under the curve (AUC), bioavailability (F) and blood-to-plasma ration (BPR). Pharmacokinetics of the deuterated tryptamines was studied in rats. In a typical experiment, run as a cassette dosing, two groups of 5 Wistar female rats (200-250 g) with surgically inserted jugular vein catheter (Charles River, Andover, MA) were fasted for 12 h and then administered 5 mg/kg of the deuterated and 5 mg/kg of the related non-deuterated analog, by oral gavage or via a catheter for each group. At time points 0, 15, 30, 60 min, and 2, 4, 8, and 24 h, the resulting plasma was analyzed for the parent molecule using LC/MS spectroscopy. Two separate groups of 5 animals were used for determining blood-to-plasma ratio (BPR). Each group was sacrificed at time points 15 and 30 min, respectively, and the concentration of the parent drug was determined in the brain and plasma by LC/MS spectroscopy.

[3] = Table 5, d8 and d10 analogs, hrMAO-A

In the case of C=CCN(CC=C)CCc1c[nH]c2ccccc12, the “RLM, %, class symbol (metabolized or not)” value [1] is reported as “R”.
In the case of C=CCNCCc1c[nH]c2ccccc12, the “RLM, %, class symbol (metabolized or not)” value [1] is reported as “R”.
For [2H]C([2H])(Cc1c[nH]c2ccccc12)NC([2H])([2H])C([2H])([2H])[2H], the “MAO, % (half-life as % vs. the related nondeuterated compound)” value (hrMAO-A) was 170%.
With [2H]C([2H])([2H])C([2H])([2H])NC([2H])([2H])C([2H])([2H])c1c[nH]c2cccc(O)c12 the “RLM, % (half-life as % vs. the related nondeuterated compound)” value [1] was “[93] %”.
With CCN(CC)CCc1c[nH]c2ccccc12 the “RLM, %, class symbol (metabolized or not)” value [1] was “R”.
With [2H]C([2H])(c1c[nH]c2ccc(OC)cc12)C([2H])([2H])N(CC)CC the “RLM, % (half-life as % vs. the related nondeuterated compound)” value [1] was “[95] %”.
With CCN(CC)CCc1c[nH]c2ccc(OC)cc12 the “RLM, %, class symbol (metabolized or not)” value [1] was “R”.
For CCN(CC)CCc1c[nH]c2ccc(O)cc12, the “RLM, %, class symbol (metabolized or not)” value [1] was “R”.
With CCN(CC)CCc1c[nH]c2cccc(OC)c12 the “RLM, %, class symbol (metabolized or not)” value [1] was “R”.
In the case of [2H]c1ccc2[nH]c([2H])c(CCN([2H])CC)c2c1O, the “RLM, %, class symbol (metabolized or not)” value [1] is reported as “R”.
In the case of [2H]C([2H])(NCC)C([2H])([2H])c1c[nH]c2ccccc12, the “MAO, % (half-life as % vs. the related nondeuterated compound)” value (hrMAO-A) is reported as 140%.
For [2H]C([2H])(NCC)C([2H])([2H])c1c[nH]c2cccc(O)c12, the “RLM, % (half-life as % vs. the related nondeuterated compound)” value [1] was “[94] %”.
In the case of CCNCCc1c[nH]c2cccc(O)c12, the “RLM, %, class symbol (metabolized or not)” value [1] is reported as “R”.
With [2H]C([2H])(c1c[nH]c2cccc(OC)c12)C([2H])([2H])N(C)C the “RLM, % (half-life as % vs. the related nondeuterated compound)” value [1] was 190%.
For [2H]C([2H])(NC)C([2H])([2H])c1c[nH]c2cccc(O)c12, the “RLM, % (half-life as % vs. the related nondeuterated compound)” value [1] was 160%.
In the case of CC(C)NCCc1c[nH]c2ccccc12, the “RLM, %, class symbol (metabolized or not)” value [1] is reported as “R”.
With CC(C)NCCc1c[nH]c2cccc(O)c12 the “RLM, %, class symbol (metabolized or not)” value [1] was “R”.
For [2H]C([2H])(c1c[nH]c2cccc(O)c12)C([2H])([2H])N(C(C)C)C(C)C, the “RLM, % (half-life as % vs. the related nondeuterated compound)” value [1] was “[97] %”.
With CC(C)N(CCc1c[nH]c2cccc(O)c12)C(C)C the “RLM, %, class symbol (metabolized or not)” value [1] was “R”.
With COc1ccc2[nH]cc(CCN(C)C)c2c1 [5-MeO-DMT, reference compound] the “MAO, %, class symbol (metabolized or not)” value (hrMAO-A) was “R” and the “RLM, %, class symbol (metabolized or not)” value [1] was “R”.
In the case of [2H]C([2H])(Cc1c[nH]c2ccc(OC)cc12)N(C)C [5-MeO-DMT-α,α-d2], the “Deuterium Kinetic Isotope Effect (% change) AUC” value [2] is reported as 60 % change, the “Deuterium Kinetic Isotope Effect (% change) T1/2” value [2] is reported as 30 % change and the “Deuterium Kinetic Isotope Effect (% change) BPR, 15 min” value [2] is reported as 120 % change. The “Deuterium Kinetic Isotope Effect (% change) BPR, 30 min” value [2] was 180 % change.
In the case of [2H]C([2H])(Cc1c[nH]c2ccccc12)N(C)C [DMT-d2], the Half-life (hrMAO-A; Table 3, hrMAO-A) is reported as greater than 2 h, the “% Remaining of Initial 0 min” value (hrMAO-A; Table 3, hrMAO-A) is reported as 100% and the “% Remaining of Initial 60 min” value (hrMAO-A; Table 3, hrMAO-A, 60 min) is reported as 76.0%. The “% Remaining of Initial 0 min” value ([1]; Table 2, RLM) was 100% and the “% Remaining of Initial 60 min” value ([1]; Table 2, RLM, 60 min) was 32.0%.
In the case of [2H]C([2H])(c1c[nH]c2ccccc12)C([2H])([2H])N(C)C [DMT-d4], the Half-life (hrMAO-A; Table 3, hrMAO-A) is reported as greater than 2 h, the “% Remaining of Initial 0 min” value (hrMAO-A; Table 3, hrMAO-A) is reported as 100% and the “% Remaining of Initial 0 min” value ([1]; Table 2, RLM) is reported as 100%.
With [2H]C([2H])([2H])N(C([2H])([2H])[2H])C([2H])([2H])C([2H])([2H])c1c[nH]c2ccccc12 [DMT-d10] the “metabolic stability in the MAO-A enzymatic assay, in words” value (hrMAO-A; MAO-A enzymatic assay) was “superiority”, the Half-life (hrMAO-A; Table 3, hrMAO-A) was greater than 2 h and the “% Remaining of Initial 0 min” value (hrMAO-A; Table 3, hrMAO-A) was 100%. For the same compound, the Half-life (hrMAO-A; [3]) was greater than 2 h, the “% Remaining of Initial 0 min” value (hrMAO-A; [3]) was 100.0% and the “% Remaining of Initial 5 min” value (hrMAO-A; Table 5, d8 and d10 analogs, hrMAO-A, 5 min) was 99.0%. The “% Remaining of Initial 0 min” value ([1]; Table 2, RLM) was 100%, the “% Remaining of Initial 0 min” value ([1]; Table 4, d8 and d10 analogs, RLM) was 100% and the “% Remaining of Initial 10 min” value ([1]; Table 4, d8 and d10 analogs, RLM, 10 min) was 56.0%. The “kinetic deuterium isotope effect / metabolic stability, in words” value ([1]; rat liver microsomes, vs. DMT) was “Further enhancement of metabolic stability”.
For CN(C)CCc1c[nH]c2ccccc12 [DMT], the “% Remaining of Initial 0 min” value (hrMAO-A; Table 3, hrMAO-A) was 100%, the “% Remaining of Initial 0 min” value ([1]; Table 2, RLM) was 100% and the “% Remaining of Initial 20 min” value ([1]; Table 2, RLM, 20 min) was 41.0%.
With [2H]C([2H])(Cc1c[nH]c2cccc(O)c12)N(C)C [PI-α,α-d2] the “Deuterium Kinetic Isotope Effect (% change) AUC” value [2] was 75 % change, the “Deuterium Kinetic Isotope Effect (% change) T1/2” value [2] was 50 % change and the “Deuterium Kinetic Isotope Effect (% change) BPR, 15 min” value [2] was 100 % change. The “Deuterium Kinetic Isotope Effect (% change) BPR, 30 min” value [2] was 150 % change.
In the case of CCNCCc1c[nH]c2ccccc12 [reference compound], the “MAO, %, class symbol (metabolized or not)” value (hrMAO-A) is reported as “R” and the “RLM, %, class symbol (metabolized or not)” value [1] is reported as “R”.
For CCN(C)CCc1c[nH]c2ccccc12 [reference compound], the “MAO, %, class symbol (metabolized or not)” value (hrMAO-A) was “R” and the “RLM, %, class symbol (metabolized or not)” value [1] was “R”.
For CCN(C)CCc1c[nH]c2ccc(OC)cc12 [reference compound], the “MAO, %, class symbol (metabolized or not)” value (hrMAO-A) was “R” and the “RLM, %, class symbol (metabolized or not)” value [1] was “R”.
With CCN(C)CCc1c[nH]c2ccc(O)cc12 [reference compound] the “MAO, %, class symbol (metabolized or not)” value (hrMAO-A) was “R” and the “RLM, %, class symbol (metabolized or not)” value [1] was “R”.
With CCN(C)CCc1c[nH]c2cccc(OC)c12 [reference compound] the “MAO, %, class symbol (metabolized or not)” value (hrMAO-A) was “R” and the “RLM, %, class symbol (metabolized or not)” value [1] was “R”.
For CN(C)CCc1c[nH]c2ccc(O)cc12 [reference compound], the “MAO, %, class symbol (metabolized or not)” value (hrMAO-A) was “R” and the “RLM, %, class symbol (metabolized or not)” value [1] was “R”.
In the case of COc1cccc2[nH]cc(CCN(C)C)c12 [reference compound], the “MAO, %, class symbol (metabolized or not)” value (hrMAO-A) is reported as “R” and the “RLM, %, class symbol (metabolized or not)” value [1] is reported as “R”.
In the case of CNCCc1c[nH]c2ccccc12 [reference compound], the “MAO, %, class symbol (metabolized or not)” value (hrMAO-A) is reported as “R” and the “RLM, %, class symbol (metabolized or not)” value [1] is reported as “R”.
With CNCCc1c[nH]c2cccc(O)c12 [reference compound] the “MAO, %, class symbol (metabolized or not)” value (hrMAO-A) was “R” and the “RLM, %, class symbol (metabolized or not)” value [1] was “R”.
